The series can be described thus: Human HepG2 cell viability assay in 384 well format. Type of series: toxicity, cell-based. On the set-up: dose 125 nL, time 70.5 hour; cytotoxicity at 70.5 h: concentration not given beside the values. The following applies: HepG2 cells, read-out: Inhibition.

Each structure is given as a SMILES string.

`Cc1ccc(C)c2c(C)c(C(=O)NCCCn3ccnn3)[nH]c12`: the cytotoxicity at 70.5 h worked out at 43.6%.

On to `CCCS(=O)(=O)N1CCC2(CCC(=O)N(CCc3ccccc3)C2)CC1`, for which the cytotoxicity at 70.5 h was -10.1%.

In the case of `CCSCCNC(=O)c1cnc(-c2ccccc2)nc1O`, the cytotoxicity at 70.5 h was 7.82%.

`CCCN1CCN(C(=O)c2ccc3ccccc3n2)[C@H]2CS(=O)(=O)C[C@H]21`: the cytotoxicity at 70.5 h was determined as 13.2%. As to `O=C(CSc1ccccc1)Nc1cnn(CC(=O)N2CCCO2)c1`, the cytotoxicity at 70.5 h is -2.01%.

Consider `Cc1nc(CN2C[C@@H](NS(=O)(=O)N(C)C)[C@H](C(C)C)C2)cs1`, for which the cytotoxicity at 70.5 h was -1.78%. To `Cc1cccc(-c2cc(-c3c(C)nn(CCO)c3C)c(C#N)c(N)n2)c1` belongs -11.4%; to `Cc1ccccc1C(C(=O)N(C)Cc1cnn(C)c1)N(C)C` (stereo not drawn), -1.08%. In the case of `Cc1ccc(SCCN(C)C(=O)c2cn(CCN)nn2)cc1`, the cytotoxicity at 70.5 h came out at 16.5%. Consider `O=C(Cn1ccc2ccccc21)NCc1cc(N2CCOCC2)ncn1`, for which the cytotoxicity at 70.5 h is -1.81%. As to `CCc1nc(CN(C)C(=O)c2cc(NC(C)=O)ccc2Cl)no1`, the cytotoxicity at 70.5 h was 18.6%. Take `CN1CC2(CCCN(Cc3nnc(-c4ccccc4)o3)CC2)OC1=O` (stereo not drawn): the cytotoxicity at 70.5 h was -15%. To `CC(=O)N[C@@H]1Cc2ccccc2[C@H]1Nc1ccncn1` belongs -5.99%. To `CCNc1ncc(C(=O)NCc2csc(C)n2)cn1` belongs 1.23%; to `Cc1ccc(N2CCCC(c3[nH]ncc3Cc3ccccc3)C2)nn1` (stereo not drawn), 7.65%. With `CCc1c(C)nc(N)nc1NCCSCc1[nH]cnc1C`, the cytotoxicity at 70.5 h was -2.58%.

As to `COc1cc(F)c(CN2CC[C@@](O)(C3CC3)[C@H](C)C2)cc1OC`, the cytotoxicity at 70.5 h is -3.1%.

With `CCCn1ncc(C(=O)N2CCN([C@H]3CCCC[C@@H]3O)CC2)c1C`, the cytotoxicity at 70.5 h was -0.657%. Consider `CC(C)(C)c1ncc2c(n1)CN(C(=O)c1ccc3[nH]cnc3c1)C2`, for which the cytotoxicity at 70.5 h is -3.17%. As for `COc1ccccc1OCCCc1cccc(C#N)n1`, the figure is -1.85%; as for `COC[C@]1(O)CCN(c2cc(OC)ncn2)CC1(C)C`, -11.7%; as for `CN(C)CCNC(=O)c1ccc(OC2CCN(C3CCC3)CC2)c(Cl)c1`, -5.59%.

On to `O=C(c1ccccc1C(F)(F)F)N1C[C@@H](CN2CCOCC2)[C@@H](CO)C1`, for which the cytotoxicity at 70.5 h was -6.68%. As for `CCC(=O)N1CCc2[nH]cnc2C12CCN(CC1CCOC1)CC2` (stereo not drawn), the figure is -9.55%; as for `CS(=O)(=O)N1CCC2(CCCN(CCCc3ccccc3)C2=O)C1` (stereo not drawn), -6.93%. To `Cc1ccc(CN(C)Cc2cc(C3CC3)[nH]n2)c(O)n1` belongs -5.35%.

On to `COCC(NC(=O)c1cnc(-c2ccncc2)nc1)c1ccnn1C` (stereo not drawn), for which the cytotoxicity at 70.5 h is -5.01%.

As to `O=C(NCc1ccc2c(c1)CCCO2)c1cn2c(n1)CNCC2`, the cytotoxicity at 70.5 h came to 5.37%.

For the compound `CC(C)Oc1cccc(C(=O)Nc2nncs2)c1`, the cytotoxicity at 70.5 h was -11.6%.

Consider `O=c1cc(-c2ccncc2)nc(-c2ccc(CN3CC[C@@H](O)C3)cc2)[nH]1`, for which the cytotoxicity at 70.5 h is -11.3%. As for `COc1cccc(OCc2cc(C(=O)NC[C@@H]3CCCN3)n[nH]2)c1`, the figure is 0.523%; as for `Cc1ccc(CN2CCN(C3CSCCSC3)CC2CCO)o1` (stereo not drawn), -6.76%; as for `c1cc(N2CCC(c3nnc(Cn4ccnc4)n3C3CC3)CC2)ccn1`, -6.52%. As for `CCC1=NOC(CNCc2cnc(-c3ccccc3C)s2)C1` (stereo not drawn), the figure is -6.62%; as for `CC(Cn1ccnc1)NCc1nncn1C1CCCCC1` (stereo not drawn), -1.11%.

On to `Cc1ccc(CN2CC3(CCN(C(=O)C4CC4)CC3)CC2C(=O)O)o1` (stereo not drawn), for which the cytotoxicity at 70.5 h was -2.54%. To `CN(C)c1nc2c(c(=O)[nH]1)CCN(C(=O)C1CCCO1)C2` (stereo not drawn) belongs -8.42%; to `O=C(Nc1ccc(-n2cccn2)cc1)N1C[C@H](O)[C@@H](N2CCOCC2)C1`, -13.4%; to `CC(=O)Nc1ccc(CN2CCc3[nH]cnc3C2c2ccc(C)o2)cc1` (stereo not drawn), -6.39%.

In the case of `CCN1CCC2(CC1)c1nc[nH]c1CCN2S(C)(=O)=O`, the cytotoxicity at 70.5 h is -6.08%. To `COCCN(C)CCN1CC2(CCN(C3CCCCC3)CC2)OC1=O` belongs -4.75%; to `CNCc1n[nH]c(=O)n1CC1CCCCC1`, -5.1%; to `Cc1nc(CN(C)Cc2cn[nH]c2-c2ccc(F)cc2)c[nH]1`, 5.97%.

For the compound `CC(NCc1cn(CCC(N)=O)c2ccccc12)c1nncn1C` (stereo not drawn), the cytotoxicity at 70.5 h stood at 23.7%.

Consider `CCNc1ncc(C(=O)NC2CCOCC2)cn1`, for which the cytotoxicity at 70.5 h is -5.98%.

For the compound `Cc1nc(C)c(-c2ccn(CC(=O)Nc3cnn(C)n3)n2)s1`, the cytotoxicity at 70.5 h stood at 8.07%.

As to `CSc1ccccc1C(=O)N1C[C@H]2CC[C@@H]1CN(C(=O)N(C)C)C2`, the cytotoxicity at 70.5 h is -8.08%. As for `CC(C)[C@]1(O)CN(C(=O)CNC(N)=O)C[C@H]1C`, the figure is -0.763%. In the case of `CC(=O)NCC(=O)N(CCN1CCOCC1)Cc1ccco1`, the cytotoxicity at 70.5 h was 3.23%.

For `Cc1noc(C)c1C(=O)N(Cc1ccsc1)CC1CCCO1` (stereo not drawn), the cytotoxicity at 70.5 h was 3.1%.

Consider `Cc1nc2c(c(NCc3cnc4c(c3)CCC4)n1)CNC2`, for which the cytotoxicity at 70.5 h is -6.06%. Take `CCN1CC2(CCC1=O)CCN(C(=O)C(O)c1cccc(Cl)c1)CC2` (stereo not drawn): the cytotoxicity at 70.5 h was -7.18%. As to `CN1Cc2nnc(C3CCOCC3)n2C(Cc2c[nH]cn2)C1` (stereo not drawn), the cytotoxicity at 70.5 h is -1.52%. To `OC1CCN(CCCNc2ncccn2)CC1` belongs 3.78%; to `O=C(O)C1c2nc[nH]c2CCN1Cc1ccc(-c2ccccc2)s1` (stereo not drawn), -4.04%; to `CN(Cc1ccc2nonc2c1)C(=O)c1ccc(C2CCCO2)s1` (stereo not drawn), -4.66%. As to `COCc1nc(CNC2CSCCSC2)no1`, the cytotoxicity at 70.5 h is -11.5%. As for `CCn1ncnc1CN(CCOC)Cc1ccc(C)cc1`, the figure is -4.05%; as for `Cn1nccc1C(=O)N1CCCN(CCCc2ccccc2)CC1`, -0.514%. As for `CCc1ccc(C(=O)N2CCC(O)(CN3CCOCC3)C(C)(C)C2)[nH]1` (stereo not drawn), the figure is -9.84%; as for `CNCCNc1nccc(-c2cn(C)nc2C)n1`, -5.66%; as for `Cc1cccc(CNC(=O)NCC2CCN(Cc3ncc[nH]3)C2)c1` (stereo not drawn), -16.7%. To `Cc1nnsc1CN1C[C@H]2CC[C@@H]1CN(Cc1ccccc1)C2` belongs -1.08%; to `CSCc1noc(Cn2ncn3cccc3c2=O)n1`, -3.25%.

Take `O=S(=O)(Cc1ccccc1CN1CCOCC(O)C1)c1ccccc1` (stereo not drawn): the cytotoxicity at 70.5 h is 14.8%. For `Cc1ccc(OC2(C(=O)N(C)Cc3ccoc3)CCNCC2)cc1`, the cytotoxicity at 70.5 h was -16.8%. Consider `CCCc1cnc(C)nc1N1CCC2(CCCO2)CC1`, for which the cytotoxicity at 70.5 h was -1.28%.

As for `CCc1nc(N2CCCC(CCCOC)C2)c2cnn(C)c2n1` (stereo not drawn), the cytotoxicity at 70.5 h was -5.41%.

For `COCc1nc(Cn2ncn3cccc3c2=O)no1`, the cytotoxicity at 70.5 h is -0.912%. Consider `CCN1CC(C(=O)N2CCN(CCn3cccc3)CC2)CCC1=O` (stereo not drawn), for which the cytotoxicity at 70.5 h came to 1.29%.

`Fc1cccc(C2(CNC3CCSC3)CCOCC2)c1` (stereo not drawn): the cytotoxicity at 70.5 h amounted to 13.3%. On to `CCc1nc(C)c(C2CC(=O)Nc3c2c(-c2ccccn2)nn3C)[nH]1` (stereo not drawn), for which the cytotoxicity at 70.5 h amounted to 1.83%. As to `COc1cccc2c1OCCCN(c1nc(N)nc3c1CCNC3)C2`, the cytotoxicity at 70.5 h was 12.6%. As for `CCOCC(=O)N1CCC(C2CCN(Cc3ccc(Cl)cc3)C2)CC1` (stereo not drawn), the figure is -2.4%; as for `COc1nc(C)c(C(=O)N2CCN(c3ncccc3C)CC2)s1`, -4.24%. To `CN(Cc1ccc2c(c1)OCO2)C(=O)c1ccc(C2CCCNC2)cc1` (stereo not drawn) belongs -6.12%.

For `NC(=O)CN1CCCC(C(=O)N2CCC(O)(Cc3ccccc3)CC2)C1` (stereo not drawn), the cytotoxicity at 70.5 h was -9.61%. Consider `CCc1ccc2nc(C)cc(C(=O)NC3CCCCNC3=O)c2c1` (stereo not drawn), for which the cytotoxicity at 70.5 h came out at 1.7%.

Turning to `CC(=O)N1CCCC(C(=O)NCCc2csc(-c3ccncc3)n2)C1` (stereo not drawn), the cytotoxicity at 70.5 h is -5.2%.

As to `O=C(c1scc2c1OCCO2)N1CCC(Cc2cccc(CO)c2)C1` (stereo not drawn), the cytotoxicity at 70.5 h is -3.37%. For the compound `Cc1nc[nH]c1CN1CCCC(CNC(=O)c2ccncn2)C1` (stereo not drawn), the cytotoxicity at 70.5 h was -7.41%. To `Cc1nc(C)c(CC(=O)N2C[C@@H]3CC[C@H](C2)N(CC2CC2)C3)s1` belongs -3.8%; to `CCCS(=O)(=O)NCc1cccnc1Oc1ccc(C)nc1`, -0.632%. To `O=C(O)C1(Cc2ccc(F)cc2F)CCCN(Cc2ccccn2)C1` (stereo not drawn) belongs -5.82%; to `O=C1NCCCC[C@@H]1NC(=O)C1(N2CCCCC2)Cc2ccccc2C1`, -4.27%.

`O=C(NCc1nnnn1-c1ccccc1)c1ccc(C2CCCO2)s1` (stereo not drawn): the cytotoxicity at 70.5 h is -4.49%. To `NC(=O)C1CCCN(c2ncnc3c2Cc2ccccc2OC3)C1` (stereo not drawn) belongs 19%; to `C[C@@H]1CN(c2ccc(Cl)cn2)CC[C@@]1(O)C1CCOCC1`, -1.93%; to `CN1CC2(CCN(C(=O)c3[nH]cnc3-c3ccccc3)C2)OC1=O` (stereo not drawn), -3.76%. To `O=C(Cc1cc(F)cc(Cl)c1)N[C@@H]1CCNC[C@H]1O` belongs -5.4%; to `CCNc1ncc(C(=O)N(C)Cc2nc3cc(Cl)ccc3[nH]2)cn1`, -13.7%; to `CN(CC1(CO)CC1)C(=O)C1CCC(=O)N(Cc2ccc(Cl)cc2)C1` (stereo not drawn), -1.51%. As for `OC1(CNCc2noc(Cc3ccccc3)n2)CCCNC1` (stereo not drawn), the figure is 0.455%. With `CCN(Cc1nccn1C)C(=O)c1ccc(NCc2cnn(C)c2)nc1`, the cytotoxicity at 70.5 h was -3.96%. To `COc1ccc(-n2ccnc2-c2cnc(N(C)C)nc2)cc1OC` belongs -6.47%; to `O[C@@H]1CN(CC2=Cc3cc(Cl)ccc3OC2)CC[C@H]1N1CCCCCC1`, -11%. `O=C(c1ccc(S(=O)(=O)NCCc2ccncc2)cc1)N1CCCC1`: the cytotoxicity at 70.5 h is -19.6%.

On to `Cc1n[nH]c(C)c1CCc1nc(C2CC2)n[nH]1`, for which the cytotoxicity at 70.5 h was -6.37%.

The values are drawn from ChEMBL document CHEMBL3507680, “University of Dundee, Gates Library screen for HepG2 cell viability”.
